Measured values as given in ChEMBL document CHEMBL5665443, “Enzyme Inhibitor Single Concentration assay results for EUbOPEN Chemogenomics Library” (2024).

Tests used:
Settings in all cases: Hit No
[1] = target: Endonuclease 8-like 1 (Homo sapiens) (UniProt Q96FI4);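 further: fluorescence at 594 nm from quenched duplex DNA oligonucleotides released by NEIL1 cleavage and strand separation, reported as reduction of this enzyme activity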
Description: Inhibition of NEIL1 by quantifying inhibition of NEIL1-mediated cleavage and dissociation of quenched duplex DNA oligonucleotides, measured as fluorescence at 594 nm.

[2] = target: N-glycosylase/DNA lyase (Homo sapiens) (UniProt O15527);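 further: OGG1 cleavage of a quenched duplex DNA oligonucleotide, coupled to APE1 for strand incision, read as fluorescence at 594 nm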
N-glycosylase/DNA lyase (Homo sapiens), sequence (O15527 whole entry): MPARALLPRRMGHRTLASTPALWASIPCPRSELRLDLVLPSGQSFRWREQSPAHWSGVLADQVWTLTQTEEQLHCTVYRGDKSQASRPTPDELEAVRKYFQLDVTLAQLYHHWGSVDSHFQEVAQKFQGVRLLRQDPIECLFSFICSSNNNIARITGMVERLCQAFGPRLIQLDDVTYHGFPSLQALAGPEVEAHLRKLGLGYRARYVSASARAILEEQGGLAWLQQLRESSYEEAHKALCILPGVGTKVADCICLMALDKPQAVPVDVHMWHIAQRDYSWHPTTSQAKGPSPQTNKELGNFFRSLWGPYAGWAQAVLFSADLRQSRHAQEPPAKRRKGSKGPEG
Description: Inhibition of OGG1 by quantifying inhibition of OGG1-mediated cleavage and dissociation of quenched duplex DNA oligonucleotides, measured as fluorescence at 594 nm. To generate a functional strand incision and increase turn-over this assay is coupled to APE1.

[3] = target: Uracil-DNA glycosylase (Homo sapiens) (UniProt P13051);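 further: UNG excision on a quenched double-stranded DNA oligo probe, with APE1 added for strand incision and turnover, read as fluorescence at 594 nm as strands separate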
Uracil-DNA glycosylase (Homo sapiens), sequence (P13051 whole entry): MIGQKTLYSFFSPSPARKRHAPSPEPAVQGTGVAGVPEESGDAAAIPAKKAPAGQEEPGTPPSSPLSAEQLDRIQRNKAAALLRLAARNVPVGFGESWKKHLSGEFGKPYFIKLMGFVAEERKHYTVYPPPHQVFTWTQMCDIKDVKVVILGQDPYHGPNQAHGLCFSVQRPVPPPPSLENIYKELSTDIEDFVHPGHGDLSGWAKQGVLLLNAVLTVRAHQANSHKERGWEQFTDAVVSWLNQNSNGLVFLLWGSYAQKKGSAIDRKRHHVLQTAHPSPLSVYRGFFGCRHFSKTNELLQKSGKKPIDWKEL
Description: Inhibition of UNG by quantifying inhibition of UNG-mediated cleavage and dissociation of quenched duplex DNA oligonucleotides, measured as fluorescence at 594 nm. To generate a functional strand incision and increase turn-over this assay is coupled to APE1.

[4] = target: T1, Endonuclease 8-like 2 (Homo sapiens) (UniProt Q969S2);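 further: fluorescence at 594 nm reports NEIL2 cutting and release of a quenched double-stranded DNA oligo substrate, reduced signal read as inhibition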
T1 sequence (whole entry): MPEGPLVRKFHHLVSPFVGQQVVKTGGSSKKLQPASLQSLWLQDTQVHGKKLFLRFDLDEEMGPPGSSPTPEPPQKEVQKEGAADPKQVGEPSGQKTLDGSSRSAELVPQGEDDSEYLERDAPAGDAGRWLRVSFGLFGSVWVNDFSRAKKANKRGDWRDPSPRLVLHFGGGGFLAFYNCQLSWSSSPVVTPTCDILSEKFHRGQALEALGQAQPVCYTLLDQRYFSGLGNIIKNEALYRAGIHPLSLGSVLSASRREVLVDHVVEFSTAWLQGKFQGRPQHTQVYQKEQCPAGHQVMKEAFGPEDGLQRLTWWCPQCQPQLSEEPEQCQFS
Description: Inhibition of NEIL2 by quantifying inhibition of NEIL2-mediated cleavage and dissociation of quenched duplex DNA oligonucleotides, measured as fluorescence at 594 nm.

[5] = target: G/T mismatch-specific thymine DNA glycosylase (Homo sapiens) (UniProt Q13569);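 further: human TDG cleavage of quenched duplex DNA oligonucleotides coupled to APE1, strand release read as fluorescence at 594 nm, inhibition of TDG activity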
G/T mismatch-specific thymine DNA glycosylase (Homo sapiens), sequence (Q13569 whole entry): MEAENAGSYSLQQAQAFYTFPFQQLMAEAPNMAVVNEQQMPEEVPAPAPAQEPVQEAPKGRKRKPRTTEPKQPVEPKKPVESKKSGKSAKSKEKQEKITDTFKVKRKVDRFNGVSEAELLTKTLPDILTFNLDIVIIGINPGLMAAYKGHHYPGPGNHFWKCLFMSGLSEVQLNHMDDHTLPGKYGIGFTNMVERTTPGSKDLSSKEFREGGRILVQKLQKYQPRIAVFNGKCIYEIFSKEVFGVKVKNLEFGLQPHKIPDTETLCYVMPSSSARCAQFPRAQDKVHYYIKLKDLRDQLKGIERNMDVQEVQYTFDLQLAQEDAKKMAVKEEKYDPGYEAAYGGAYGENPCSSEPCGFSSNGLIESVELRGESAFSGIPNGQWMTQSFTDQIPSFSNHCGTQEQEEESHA
Description: Inhibition of TDG by quantifying inhibition of TDG-mediated cleavage and dissociation of quenched duplex DNA oligonucleotides, measured as fluorescence at 594 nm. To generate a functional strand incision and increase turn-over this assay is coupled to APE1.

[6] = target: T2, Single-strand selective monofunctional uracil DNA glycosylase (Homo sapiens) (UniProt Q53HV7);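 further: enzymatic SMUG1 assay coupled with APE1, reading fluorescence at 594 nm released when a quenched double-stranded DNA oligonucleotide substrate is cleaved and separated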
T2 sequence (whole entry): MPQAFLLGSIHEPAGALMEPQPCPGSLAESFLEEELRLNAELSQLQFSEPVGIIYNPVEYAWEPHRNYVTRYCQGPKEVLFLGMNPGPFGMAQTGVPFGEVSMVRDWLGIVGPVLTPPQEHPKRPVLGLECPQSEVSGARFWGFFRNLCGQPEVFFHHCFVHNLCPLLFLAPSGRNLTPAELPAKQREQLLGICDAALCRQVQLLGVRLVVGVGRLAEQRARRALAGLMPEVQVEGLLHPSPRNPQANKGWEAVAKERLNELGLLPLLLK
Description: Inhibition of SMUG1 by quantifying inhibition of SMUG1-mediated cleavage and dissociation of quenched duplex DNA oligonucleotides, measured as fluorescence at 594 nm. To generate a functional strand incision and increase turn-over this assay is coupled to APE1.

[7] = target: Methyl-CpG-binding domain protein 4 (Homo sapiens) (UniProt O95243);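 further: MBD4 activity read as fluorescence at 594 nm from cleavage and release of a quenched duplex DNA oligonucleotide, with APE1 coupled to incise the strand and raise turnover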
Methyl-CpG-binding domain protein 4 (Homo sapiens), sequence (O95243 whole entry, the tested form may be a part): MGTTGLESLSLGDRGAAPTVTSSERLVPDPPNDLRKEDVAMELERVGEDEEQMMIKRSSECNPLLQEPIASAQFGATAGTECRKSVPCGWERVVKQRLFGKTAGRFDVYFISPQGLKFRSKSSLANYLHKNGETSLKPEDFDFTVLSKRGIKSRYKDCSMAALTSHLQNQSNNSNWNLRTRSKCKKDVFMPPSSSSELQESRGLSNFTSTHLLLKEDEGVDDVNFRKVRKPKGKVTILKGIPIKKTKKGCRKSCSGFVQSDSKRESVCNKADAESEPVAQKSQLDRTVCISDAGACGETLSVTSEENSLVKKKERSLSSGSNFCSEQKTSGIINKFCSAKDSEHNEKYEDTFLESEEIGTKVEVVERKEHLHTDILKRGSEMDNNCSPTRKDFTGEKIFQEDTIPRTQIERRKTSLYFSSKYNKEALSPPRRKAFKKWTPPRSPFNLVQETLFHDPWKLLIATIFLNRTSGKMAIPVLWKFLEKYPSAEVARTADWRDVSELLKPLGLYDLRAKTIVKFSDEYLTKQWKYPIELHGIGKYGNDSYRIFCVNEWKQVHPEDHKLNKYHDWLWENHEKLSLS
Description: Inhibition of MBD4 by quantifying inhibition of MBD4-mediated cleavage and dissociation of quenched duplex DNA oligonucleotides, measured as fluorescence at 594 nm. To generate a functional strand incision and increase turn-over this assay is coupled to APE1.

Endonuclease 8-like 1 (Homo sapiens), sequence (Q96FI4 whole entry): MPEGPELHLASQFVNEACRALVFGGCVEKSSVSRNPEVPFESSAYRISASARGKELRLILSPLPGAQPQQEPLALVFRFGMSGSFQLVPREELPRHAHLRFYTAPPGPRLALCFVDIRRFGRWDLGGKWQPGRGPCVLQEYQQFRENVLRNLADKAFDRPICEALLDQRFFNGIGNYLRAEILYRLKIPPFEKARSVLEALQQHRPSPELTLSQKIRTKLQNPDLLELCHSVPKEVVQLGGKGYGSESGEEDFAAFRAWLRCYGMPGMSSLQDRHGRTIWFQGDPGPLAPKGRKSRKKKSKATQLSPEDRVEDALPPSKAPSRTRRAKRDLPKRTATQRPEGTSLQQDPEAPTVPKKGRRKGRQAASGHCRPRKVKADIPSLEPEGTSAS

| SMILES | inhibition ([1]; Compound Concentration 10.0 uM) [%] | inhibition ([2]; Compound Concentration 10.0 uM) [%] | inhibition ([3]; Compound Concentration 10.0 uM) [%] | inhibition ([4]; Compound Concentration 10.0 uM) [%] | inhibition ([5]; Compound Concentration 10.0 uM) [%] | inhibition ([6]; Compound Concentration 10.0 uM) [%] | inhibition ([7]; Compound Concentration 10.0 uM) [%] | inhibition ([1]; Compound Concentration 1.0 uM) [%] | inhibition ([2]; Compound Concentration 1.0 uM) [%] | inhibition ([3]; Compound Concentration 1.0 uM) [%] | inhibition ([7]; Compound Concentration 1.0 uM) [%] | inhibition ([4]; Compound Concentration 1.0 uM) [%] | inhibition ([5]; Compound Concentration 1.0 uM) [%] | inhibition ([6]; Compound Concentration 1.0 uM) [%] |
| --- | --- | --- | --- | --- | --- | --- | --- | --- | --- | --- | --- | --- | --- | --- |
| CCCCCCCCCCCCCCCCOC[C@H](COP(=O)([O-])OCC[N+](C)(C)C)OC(C)=O | -4.5 | 31.6 | -5.53 | -9.72 |  |  |  |  |  |  |  |  |  |  |
| C=CC(=O)N1CCC([C@@H]2CCNc3c(C(N)=O)c(-c4ccc(Oc5ccccc5)cc4)nn32)CC1 | -8.45 | 6.47 | -0.527 |  | 49.9 | 20.1 |  |  |  |  |  |  |  |  |
| O=C(Nc1cnc(Oc2ccc(F)cc2)nc1)N1CCc2ncccc2[C@@H]1c1ccc(F)cc1 |  | -7.44 | -4.47 | -3.04 | 49.8 | 6.94 | 70.5 |  |  |  |  |  |  |  |
| CC(C)COc1ccc(CNC(=O)N(Cc2ccc(F)cc2)C2CCN(C)CC2)cc1 | 2.32 | -7.83 |  | 8 | -0.163 |  |  |  |  |  |  |  |  |  |
| O=S(=O)(c1ccccc1)c1cnc2c(N3CCNCC3)cccc2c1 | 6.47 | -2.8 | -8.69 | -5.97 |  | -2.7 |  |  |  |  |  |  |  |  |
| CCOc1ccn(-c2ccc(F)cc2)c(=O)c1C(=O)Nc1ccc(Oc2ccnc(N)c2Cl)c(F)c1 | 6.08 | -7.89 | 6.57 |  | 59.2 | 30.4 |  |  |  |  |  |  |  |  |
| O=C(N[C@@H]1CC[C@@H](c2cccc(F)c2F)CN(CC(F)(F)F)C1=O)N1CCC(n2c(=O)[nH]c3ncccc32)CC1 | -5.1 | -8.48 |  | 4.76 | 0.452 |  |  |  |  |  |  |  |  |  |
| O=C(Nc1ccc(Oc2ccc(F)cc2)cc1)N1CCc2ncccc2[C@H]1c1ccc(F)cc1 |  |  |  |  |  |  |  | -9.68 | -3.07 | -3.31 | 71 | -5.34 | 48.4 | 3.93 |
| CC(C=CC1=C(C)CCCC1(C)C)=CC=CC(C)=CC(=O)O |  | 83.6 | -0.014 | -4.83 | 96.3 | 8.2 | 57.7 |  |  |  |  |  |  |  |
| COc1cccc(CNC(=O)c2nc3scc(COCc4ccc(C(=O)O)cc4)c3c(=O)[nH]2)c1 |  |  |  |  |  |  |  | -1.5 | 12.5 | -0.0979 | 56 | -2.53 | 99.5 | 18.6 |
| O=C(Cc1ccc(Cl)c(Cl)c1)N1CCCC[C@H]1CN1CCCC1 | -3.91 | 2.1 | -9.61 | -2.48 |  | -3.13 |  |  |  |  |  |  |  |  |
| C[C@@H]1CN(Cc2ccc(F)cc2)CCN1C(=O)COc1ccc(Cl)cc1NC(N)=O | 8.25 |  |  | 1.76 | -7.21 | -3.18 | -0.315 |  |  |  |  |  |  |  |
| N#Cc1cccc(C(=O)Nc2cc(-c3ccccc3)nn2-c2ccccc2)c1 | -1.98 | -5.93 |  | 0.764 | -2.1 | -0.276 |  |  |  |  |  |  |  |  |
| CC(=O)C1=C(C)N(c2cccc(C(F)(F)F)c2)C(=O)N[C@@H]1c1ccc(C#N)nc1 |  | -1.15 | 2.25 | 3.85 | 45.6 | -3.19 | 51.4 |  |  |  |  |  |  |  |
| NC(=O)[C@@H]1CCCN1C(=O)[C@H](Cc1c[nH]cn1)NC(=O)[C@@H]1CCC(=O)N1 | -9.1 | -2.75 |  | 12.7 | 10.8 | -2.65 | -3.57 |  |  |  |  |  |  |  |
| Cc1c(C(=O)O)cc(-c2ccc(C3CCNCC3)cc2)c2ccc(-c3ccc(C(F)(F)F)cc3)cc12 | -6.8 | 11.4 | 3.66 | -4.83 | 44.3 | 4.5 |  |  |  |  |  |  |  |  |
| Nc1ccc(C(=O)Nc2cccc(-c3nc(N4CCOCC4)c4oc5ncccc5c4n3)c2)cn1 | -5.94 | 23 | 2.33 |  | 7.37 | 9.56 | -6.46 |  |  |  |  |  |  |  |
| CC[C@H]1OC(=O)[C@H](C)[C@@H](O[C@H]2C[C@@](C)(OC)[C@@H](O)[C@H](C)O2)[C@H](C)[C@@H](O[C@@H]2O[C@H](C)C[C@H](N(C)C)[C@H]2O)[C@@]2(C)CC(C)=C(O2)[C@H](C)[C@@H](O)[C@]1(C)O | 3.06 |  |  | 4.76 | 0.145 | -6.48 |  |  |  |  |  |  |  |  |
| O=C(c1ccc(F)c(F)c1Nc1ccc(I)cc1F)N1CC(O)([C@@H]2CCCCN2)C1 |  |  | 7.28 |  | 45 | 13.1 | 21.9 |  |  |  |  |  |  |  |
